From ChEMBL document CHEMBL1130701, “Dual antagonists of platelet activating factor and histamine. 3. Synthesis, biological activity and conformational implications of substituted N-acyl-bis-arylcycloheptapiperazines” (Bioorg Med Chem Lett, 1998)

Assays:
[1] = species on record: Homo sapiens; experiment: tissue or blood; format: functional, organism-based; conditions: Plasma
[2] = biological target: Histamine H1 receptor (Rattus norvegicus, UniProt P31390); experiment: Binding affinity against Histamine H1 receptor using receptor binding assay in rat brain membranes; format: cell membranes
Chain of Histamine H1 receptor (P31390 whole entry): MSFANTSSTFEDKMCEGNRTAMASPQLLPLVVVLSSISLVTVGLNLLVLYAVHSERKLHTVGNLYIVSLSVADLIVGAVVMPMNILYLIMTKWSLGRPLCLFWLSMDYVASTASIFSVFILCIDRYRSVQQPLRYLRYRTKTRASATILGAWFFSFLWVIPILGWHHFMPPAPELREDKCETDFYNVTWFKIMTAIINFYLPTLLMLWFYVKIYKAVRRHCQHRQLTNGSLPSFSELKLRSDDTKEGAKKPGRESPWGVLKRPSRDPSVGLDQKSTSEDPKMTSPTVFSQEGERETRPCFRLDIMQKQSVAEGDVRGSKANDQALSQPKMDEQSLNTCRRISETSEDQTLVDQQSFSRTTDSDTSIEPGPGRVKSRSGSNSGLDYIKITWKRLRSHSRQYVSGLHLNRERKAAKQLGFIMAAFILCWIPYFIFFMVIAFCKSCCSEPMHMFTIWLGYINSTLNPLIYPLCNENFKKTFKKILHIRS

In the case of `CCCC(=O)N1CCN(C2c3ccc(Cl)cc3CCc3cccnc32)CC1` (stereo not given), the IC50 [1] is reported as 15 µM and the Ki [2] is reported as 3.6 µM.
Work on `CCC(=O)N1CCC(=C2c3ccc(Cl)cc3CCc3cccnc32)CC1` yielded an IC50 [1] of 2.4 µM.
`CC(=O)N1CCN(C2c3ccc(Cl)cc3C=Cc3cccnc32)CC1` (stereo not given) was tested, and the IC50 [1] was 0.66 µM.
Molecule `Clc1ccc2c(c1)CCc1cccnc1C2N1CCNCC1` (stereo not given) has an IC50 [1] of at least 23 µM and a Ki [2] of 0.0064 µM.
In the case of `CC(=O)N1CCCN(C2c3ccc(Cl)cc3CCc3cccnc32)CC1` (stereo not given), the IC50 [1] is reported as 13 µM and the Ki [2] is reported as 0.97 µM.
For `CN1CCN(C2c3ccc(Cl)cc3CCc3cccnc32)CC1` (stereo not given), the IC50 [1] was 28 µM and the Ki [2] was 0.0065 µM.
With `CC(=O)N1CCN([C@@H]2c3ccc(Cl)cc3CCc3cccnc32)CC1` the IC50 [1] was 1.3 µM and the Ki [2] was 3.6 µM.
`CC(=O)N1CCN([C@H]2c3ccc(Cl)cc3CCc3cccnc32)CC1` gave an IC50 [1] of 0.21 µM and a Ki [2] of over 10 µM.
Work on `O=CN1CCN(C2c3ccc(Cl)cc3CCc3cccnc32)CC1` (stereo not given) yielded an IC50 [1] of 12 µM and a Ki [2] of 0.29 µM.
Molecule `CC(=O)N1[C@H](C)CN(C2c3ccc(Cl)cc3CCc3cccnc32)C[C@@H]1C` (stereo not given in full) has an IC50 [1] of over 50 µM and a Ki [2] of at least 7.1 µM.
`CCOC(=O)N1CCN(C2c3ccc(Cl)cc3CCc3cccnc32)CC1` (stereo not given) showed an IC50 [1] of over 50 µM and a Ki [2] of at least 3.8 µM.
Molecule `O=CN1CCC(=C2c3ccc(Cl)cc3CCc3cccnc32)CC1` has an IC50 [1] of 14 µM.
`CCC(=O)N1CCN(C2c3ccc(Cl)cc3CCc3cccnc32)CC1` (stereo not given) was tested, and the IC50 [1] was 1.4 µM and the Ki [2] was 2.5 µM.
With `CC(=O)N1CCN(C2c3ccc(Cl)cc3CCc3cccnc32)CC1` (stereo not given) the IC50 [1] was 0.4 µM and the Ki [2] was 5.4 µM.
In the case of `O=C1CCC2CN(C3c4ccc(Cl)cc4CCc4cccnc43)CCN12` (stereo not given), the IC50 [1] is reported as 1.8 µM and the Ki [2] is reported as 3.6 µM.
`CC(=O)N1CCN(C2c3ccccc3CCc3ccccc32)CC1` gave an IC50 [1] of 26 µM and a Ki [2] of 3.7 µM.
With `CCCC(=O)N1CCC(=C2c3ccc(Cl)cc3CCc3cccnc32)CC1` the IC50 [1] was 33 µM.
For `CC(=O)N1CCC(=C2c3ccc(Cl)cc3C=Cc3cccnc32)CC1`, the IC50 [1] was 0.42 µM.
`CN1CCN(C2c3ccc(Cl)cc3CCc3cccnc32)CC1=O` (stereo not given) was tested, and the IC50 [1] was over 50 µM and the Ki [2] was 0.049 µM.
`CC(=O)N1CCN(C2c3ccc(Cl)cc3CCc3cccnc32)C[C@@H]1C` (stereo not given in full) gave an IC50 [1] of 14 µM and a Ki [2] of at least 5 µM.
For `CC(=O)N1CCC(=C2c3ccccc3CCc3ccccc32)CC1`, the IC50 [1] was 41 µM.
Work on `O=C1CN(C2c3ccc(Cl)cc3CCc3cccnc32)CCN1` (stereo not given) yielded an IC50 [1] of over 50 µM and a Ki [2] of 0.14 µM.
Work on `CN1CCC(=C2c3ccc(Cl)cc3CCc3cccnc32)CC1` yielded an IC50 [1] of at least 50 µM.
`CN(C)CCC(c1ccc(Cl)cc1)c1ccccn1` (stereo not given) [CHLORPHENIRAMINE] gave an IC50 [1] of over 50 µM.
